Source: PubChem BioAssay (NCI)
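Method: 48-hour compound exposure of cells in 96-well plates, five concentrations, linear interpolation of endpoints. TGI: concentration producing complete growth inhibition.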

Key:
Assay in all cases: NCI anticancer screen, dose series, 48 h
MDA-MB-231 breast = tested on: MDA-MB-231 breast
CAKI-1 renal = tested on: CAKI-1 renal
OVCAR-5 ovarian = tested on: OVCAR-5 ovarian
DU-145 prostate = tested on: DU-145 prostate
A549 NSCLC = tested on: A549 NSCLC
HS 578T breast = tested on: HS 578T breast
MOLT-4 leukemia = tested on: MOLT-4 leukemia
SK-MEL-28 melanoma = tested on: SK-MEL-28 melanoma
LOX IMVI melanoma = tested on: LOX IMVI melanoma
HOP-92 NSCLC = tested on: HOP-92 NSCLC

| Compound | TGI (MDA-MB-231 breast) | TGI (CAKI-1 renal) | TGI (OVCAR-5 ovarian) | TGI (DU-145 prostate) | TGI (A549 NSCLC) | TGI (HS 578T breast) | TGI (MOLT-4 leukemia) | TGI (SK-MEL-28 melanoma) | TGI (LOX IMVI melanoma) | TGI (HOP-92 NSCLC) |
| --- | --- | --- | --- | --- | --- | --- | --- | --- | --- | --- |
| O=C1c2ccccc2C(=O)c2c1c1cc(O)ccc1n2Cc1ccc(Cl)cc1Cl | 17.5 µM | 14.4 µM | 5.66 µM | > 100 µM | 13.3 µM | > 100 µM | 43.4 µM | 36.1 µM | 11.4 µM | – |
| CC(C)Oc1c(O)c2c3c(oc(=O)n3C=CC2c2ccccc2F)c1OC(C)C (centres undefined) | > 100 µM | > 100 µM | 42.9 µM | > 100 µM | > 100 µM | > 100 µM | 59.3 µM | > 100 µM | 33.1 µM | > 100 µM |
| Cc1cccc2ns[s+]c12 | – | > 100 µM | > 100 µM | – | > 100 µM | – | > 100 µM | > 100 µM | – | > 100 µM |
| C[Si](C)(C)C1=C2C(=O)c3ccccc3C(=O)C2=C([Si](C)(C)C)[C@@H]2CCCC[C@H]12 | > 100 µM | > 100 µM | > 100 µM | > 100 µM | > 100 µM | – | > 100 µM | > 100 µM | > 100 µM | > 100 µM |
| Nc1nc(NC(=O)C2=NS(=O)(=O)c3cc(S(N)(=O)=O)c(Cl)cc3N2)n[nH]1 | – | > 100 µM | > 100 µM | – | > 100 µM | – | > 100 µM | > 100 µM | > 100 µM | > 100 µM |
| CC1=C2CC3=C(C)C(=O)O[C@H]3C[C@@H](C)[C@@H]2CC1 | > 100 µM | > 100 µM | > 100 µM | – | – | > 100 µM | > 100 µM | > 100 µM | > 100 µM | > 100 µM |
| CC(C)(C)OC(=O)NCCNC(=O)OCc1ccccc1 | – | > 100 µM | > 100 µM | > 100 µM | > 100 µM | > 100 µM | > 100 µM | > 100 µM | – | > 100 µM |
| CCOC(=O)C1(C/C=C\CBr)CCCCCCC1=O (centres undefined) | > 100 µM | > 100 µM | > 100 µM | > 100 µM | > 100 µM | > 100 µM | > 100 µM | > 100 µM | > 100 µM | – |
| COC(=O)C1(C(=O)OC)CC2=C(S(=O)(=O)c3ccccc3)C[C@@H](C#N)[C@H]2C1 | > 100 µM | > 100 µM | > 100 µM | > 100 µM | > 100 µM | – | > 100 µM | > 100 µM | > 100 µM | > 100 µM |
| COc1cc(C2c3cc4c(c(O)c3C(=O)C3CCC(=O)N32)OCO4)cc(OC)c1OC (centres undefined) | – | > 100 µM | > 100 µM | > 100 µM | > 100 µM | > 100 µM | > 100 µM | > 100 µM | > 100 µM | 86.7 µM |
| COC(=O)C(I(OS(=O)(=O)c1ccc(C)cc1)c1ccccc1)=P(c1ccccc1)(c1ccccc1)c1ccccc1 | 75.6 µM | > 100 µM | 73.1 µM | 32.4 µM | 60.6 µM | 85.1 µM | 84.4 µM | 28.7 µM | – | 35.4 µM |
| CC(C)(C)OC(=O)N(CCCN)CCCCN(CCCN)C(=O)OC(C)(C)C | – | > 100 µM | > 100 µM | > 100 µM | > 100 µM | > 100 µM | > 100 µM | > 100 µM | > 100 µM | > 100 µM |
| CCOC(=O)C1C(=O)C=C(c2cc(C)ccc2O)CC1c1cccc(Br)c1 (centres undefined) | 48.4 µM | 80.5 µM | 68.9 µM | > 100 µM | 51.2 µM | 34.4 µM | 43.7 µM | – | 32.1 µM | 29.8 µM |
| O=C(c1ccccc1)c1cc(-c2ccccc2)c(-c2ccccc2)[nH]c(=O)c1=O | > 100 µM | > 100 µM | > 100 µM | – | > 100 µM | > 100 µM | 57.2 µM | > 100 µM | > 100 µM | > 100 µM |
| N#Cc1c(C#N)c(-c2ccco2)n(/N=C/c2ccco2)c1N | 36.3 µM | > 100 µM | > 100 µM | > 100 µM | > 100 µM | 71.2 µM | > 100 µM | – | > 100 µM | 61.2 µM |
| CN1CCN(c2nc3c(c(=O)n(C)c(=O)n3C)n2C)CC1 | > 100 µM | > 100 µM | > 100 µM | > 100 µM | > 100 µM | > 100 µM | – | > 100 µM | > 100 µM | > 100 µM |
| CC(C)CCC[C@@H](C)[C@H]1CC[C@H]2[C@@H]3CC=C4CC(OCCCCN(O)CCCSC5OC(CO)C(O)C(O)C5O)CC[C@]4(C)[C@H]3CC[C@]12C (some centres undefined) | – | > 100 µM | > 100 µM | – | > 100 µM | – | > 100 µM | > 100 µM | 50.7 µM | > 100 µM |
| NC(N)=NS(=O)(=O)c1ccc(NC(=O)c2c3ccccc3nc3ccccc23)cc1 | > 100 µM | > 100 µM | > 100 µM | > 100 µM | > 100 µM | – | > 100 µM | > 100 µM | > 100 µM | > 100 µM |
| COc1cc2c(oc(=O)c3c4oc([Si](C)(C)C)cc4cc(OC)c23)c2cccc(O)c12 | – | > 100 µM | > 100 µM | – | > 100 µM | – | > 100 µM | > 100 µM | > 100 µM | > 100 µM |
| COC(=O)c1ccc2[nH]c3c(c2c1)CC(=O)Nc1ccccc1-3 | > 100 µM | > 100 µM | > 100 µM | > 100 µM | > 100 µM | > 100 µM | – | > 100 µM | > 100 µM | – |
| COc1cc2c(cc1C)NC(=O)/C2=C/c1c(Cl)n(C)c2ccccc12 | 65.1 µM | 24.4 µM | 36.4 µM | 23.6 µM | 42 µM | 12.8 µM | 72.7 µM | 62.6 µM | 22.7 µM | – |
| CCC1OC(=O)C(C)C(OC2CC(C)(O)C(O)C(C)O2)C(C)C(O)C(C)(O)CC(C)C(=O)C(C)C(O)C1C (centres undefined) | – | > 300 µM | > 300 µM | – | > 300 µM | – | > 300 µM | > 300 µM | > 300 µM | > 300 µM |
| O=C(C(Cl)=C(Nc1ccccc1)Nc1ccccc1)C(Cl)Cl | 91.2 µM | 45 µM | – | > 100 µM | > 100 µM | > 100 µM | 45.1 µM | > 100 µM | 30.3 µM | 65.6 µM |
